Literature values in PubChem BioAssay AID1259409 (Chemical Carcinogenesis Research Information System (CCRIS), 2018).

Test system: rodent chemically induced tumor inhibition, incidence and multiplicity
Assay: CCRIS tumor inhibitor studies
Details: Species: MOUSE

SMILES: C#Cc1ccc2ccccc2c1
- tumour outcome (control, treated, inhibition, significance) (Carcinogen: 4-(METHYLNITROSAMINO)-1-(3-PYRIDYL)-1-BUTANONE, 64091-91-4, Dose [Inhibitor]: 0, 5 UMOL IN 0.1 ML CORN OIL ONCE 2 HR PRIOR TO CARCINOGEN DOSE (STUDY DURATION: 16 WK), Route [Inhibitor]: GAVAGE, Strain/Sex: STRAIN-A/FEMALE, Target Tissue: Type of Lesion: LUNG: ADENOMA, Dose [Carcinogen]: 10 UMOL IN 0.1 ML SALINE ONCE, Promoter: NONE USED): 100%, 89%, 11%, not significant
- tumour outcome (control, treated, inhibition, significance) (Carcinogen: 7,12-DIMETHYLBENZ[A]ANTHRACENE, 57-97-6, Dose [Inhibitor]: 0, 3300 NMOL IN 0.2 ML ACETONE APPLIED TO BACK ONCE 5 MIN PRIOR TO CARCINOGEN DOSE (STUDY DURATION: 26 WK), Route [Inhibitor]: DERMAL, Strain/Sex: SENCAR/FEMALE, Target Tissue: Type of Lesion: SKIN: PAPILLOMA, Dose [Carcinogen]: 10 NMOL IN 0.2 ML ACETONE APPLIED TO BACK ONCE): 100%, 96%, 4%, not calculated
- outcome (Carcinogen: 7,12-DIMETHYLBENZ[A]ANTHRACENE, 57-97-6, Dose [Inhibitor]: 0, 33000 NMOL IN 0.2 ML ACETONE APPLIED TO BACK ONCE 5 MIN PRIOR TO CARCINOGEN D (STUDY DURATION: 26 WK), Route [Inhibitor]: DERMAL, Strain/Sex: SENCAR/FEMALE, Target Tissue: Type of Lesion: SKIN: PAPILLOMA, Dose [Carcinogen]: 10 NMOL IN 0.2 ML ACETONE APPLIED TO BACK ONCE.): 100%, 100%, 0, not calculated
- tumour outcome (control, treated, inhibition, significance) (Carcinogen: 7,12-DIMETHYLBENZ[A]ANTHRACENE, 57-97-6, Dose [Inhibitor]: 0, 66000 NMOL IN 0.2 ML ACETONE APPLIED TO BACK ONCE 5 MIN PRIOR TO CARCINOGEN DOSE (STUDY DURATION: 20 WK), Route [Inhibitor]: DERMAL, Strain/Sex: SENCAR/FEMALE, Target Tissue: Type of Lesion: SKIN: PAPILLOMA, Dose [Carcinogen]: 10 NMOL IN 0.2 ML ACETONE APPLIED TO BACK ONCE.): 100%, 100%, 0%, not calculated
- outcome (Carcinogen: 7,12-DIMETHYLBENZ[A]ANTHRACENE, 57-97-6, Dose [Inhibitor]: 0, 66000 NMOL IN 0.2 ML ACETONE APPLIED TO BACK ONCE 5 MIN PRIOR TO CARCINOGEN DOSE (STUDY DURATION: 26 WK), Route [Inhibitor]: DERMAL, Strain/Sex: SENCAR/FEMALE, Target Tissue: Type of Lesion: SKIN: PAPILLOMA, Dose [Carcinogen]: 10 NMOL IN 0.2 ML ACETONE APPLIED TO BACK ONCE.): 100%, 100%, 0, not calculated
- tumour outcome (control, treated, inhibition, significance) (Carcinogen: 7,12-DIMETHYLBENZ[A]ANTHRACENE, 57-97-6, Dose [Inhibitor]: 0, 132000 NMOL IN 0.2 ML ACETONE APPLIED TO BACK ONCE 5 MIN PRIOR TO CARCINOGEN DOSE (STUDY DURATION: 20 WK), Route [Inhibitor]: DERMAL, Strain/Sex: SENCAR/FEMALE, Target Tissue: Type of Lesion: SKIN: PAPILLOMA, Dose [Carcinogen]: 10 NMOL IN 0.2 ML ACETONE APPLIED TO BACK ONCE.): 100%, 89%, 11%, not calculated
- tumour outcome (control, treated, inhibition, significance) (Carcinogen: BENZO[A]PYRENE, 50-32-8, Dose [Inhibitor]: 3300 NMOL IN 0.2 ML ACETONE APPLIED TO BACK ONCE 5 MIN PRIOR TO CARCINOGEN DOSE (STUDY DURATION: 26 WK), Route [Inhibitor]: DERMAL, Strain/Sex: SENCAR/FEMALE, Target Tissue: Type of Lesion: SKIN: PAPILLOMA, Dose [Carcinogen]: 200 NMOL IN 0.2 ML ACETONE APPLIED TO BACK ONCE.): 100%, 95%, 5%, not calculated
- tumour outcome (control, treated, inhibition, significance) (Carcinogen: BENZO[A]PYRENE, 50-32-8, Dose [Inhibitor]: 33000 NMOL IN 0.2 ML ACETONE APPLIED TO BACK ONCE 5 MIN PRIOR TO CARCINOGEN DOSE (STUDY DURATION: 26 WK), Route [Inhibitor]: DERMAL, Strain/Sex: SENCAR/FEMALE, Target Tissue: Type of Lesion: SKIN: PAPILLOMA, Dose [Carcinogen]: 200 NMOL IN 0.2 ML ACETONE APPLIED TO BACK ONCE.): 100%, 89%, 11%, not calculated
- tumour outcome (control, treated, inhibition, significance) (Carcinogen: BENZO[A]PYRENE, 50-32-8, Dose [Inhibitor]: 66000 NMOL IN 0.2 ML ACETONE APPLIED TO BACK ONCE 5 MIN PRIOR TO CARCINOGEN DOSE (STUDY DURATION: 20 WK), Route [Inhibitor]: DERMAL, Strain/Sex: SENCAR/FEMALE, Target Tissue: Type of Lesion: SKIN: PAPILLOMA, Dose [Carcinogen]: 200 NMOL IN 0.2 ML ACETONE APPLIED TO BACK ONCE.): 75%, 74%, 1%, not calculated
- tumour outcome (control, treated, inhibition, significance) (Carcinogen: N-METHYL-N'-NITRO-N-NITROSOGUANIDINE, 70-25-7, Dose [Inhibitor]: 0, 33000 NMOL IN 0.2 ML ACETONE APPLIED TO BACK ONCE 5 MIN PRIOR TO CARCINOGEN DOSE (STUDY DURATION: 20 WK), Route [Inhibitor]: DERMAL, Strain/Sex: SENCAR/FEMALE, Target Tissue: Type of Lesion: SKIN: PAPILLOMA, Dose [Carcinogen]: 2500 NMOL IN 0.2 ML ACETONE APPLIED TO BACK ONCE.): 78%, 85%, -9%, not calculated
